ChEMBL document CHEMBL5338719, “Recent advance on pleiotropic cholinesterase inhibitors bearing amyloid modulation efficacy” (Eur J Med Chem, 2022)
Blank lines part the entries; values can stand above or below the compound they belong to.

Assays:
[1] = target: T1, Amyloid-beta precursor protein (Homo sapiens, UniProt P05067); experiment: Inhibition of amyloid beta 42 (unknown origin) fibrillization at 44 uM relative to control
Cholinesterase [2] = target: T2, Cholinesterase (Homo sapiens, UniProt P06276); experiment: Inhibition of human BChE
T2 sequence (P06276 whole entry): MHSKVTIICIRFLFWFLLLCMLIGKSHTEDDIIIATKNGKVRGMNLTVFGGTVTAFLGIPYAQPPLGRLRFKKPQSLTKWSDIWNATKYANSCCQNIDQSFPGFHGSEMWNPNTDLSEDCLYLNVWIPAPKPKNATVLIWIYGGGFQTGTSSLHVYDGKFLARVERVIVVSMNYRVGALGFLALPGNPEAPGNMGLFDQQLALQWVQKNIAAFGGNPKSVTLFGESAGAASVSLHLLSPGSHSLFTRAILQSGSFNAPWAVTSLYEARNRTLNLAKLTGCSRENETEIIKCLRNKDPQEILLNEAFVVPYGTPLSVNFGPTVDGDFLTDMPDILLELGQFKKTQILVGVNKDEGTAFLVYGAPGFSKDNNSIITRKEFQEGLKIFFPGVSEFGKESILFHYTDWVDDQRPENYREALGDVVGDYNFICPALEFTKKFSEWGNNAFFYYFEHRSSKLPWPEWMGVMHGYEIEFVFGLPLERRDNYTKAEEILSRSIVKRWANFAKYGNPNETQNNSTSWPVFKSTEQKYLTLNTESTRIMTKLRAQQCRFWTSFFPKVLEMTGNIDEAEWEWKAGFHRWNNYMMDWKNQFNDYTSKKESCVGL

Acetylcholinesterase [3] = target: T3, Acetylcholinesterase (Homo sapiens, UniProt P22303); experiment: Inhibition of human AChE
T3 sequence (P22303 whole entry): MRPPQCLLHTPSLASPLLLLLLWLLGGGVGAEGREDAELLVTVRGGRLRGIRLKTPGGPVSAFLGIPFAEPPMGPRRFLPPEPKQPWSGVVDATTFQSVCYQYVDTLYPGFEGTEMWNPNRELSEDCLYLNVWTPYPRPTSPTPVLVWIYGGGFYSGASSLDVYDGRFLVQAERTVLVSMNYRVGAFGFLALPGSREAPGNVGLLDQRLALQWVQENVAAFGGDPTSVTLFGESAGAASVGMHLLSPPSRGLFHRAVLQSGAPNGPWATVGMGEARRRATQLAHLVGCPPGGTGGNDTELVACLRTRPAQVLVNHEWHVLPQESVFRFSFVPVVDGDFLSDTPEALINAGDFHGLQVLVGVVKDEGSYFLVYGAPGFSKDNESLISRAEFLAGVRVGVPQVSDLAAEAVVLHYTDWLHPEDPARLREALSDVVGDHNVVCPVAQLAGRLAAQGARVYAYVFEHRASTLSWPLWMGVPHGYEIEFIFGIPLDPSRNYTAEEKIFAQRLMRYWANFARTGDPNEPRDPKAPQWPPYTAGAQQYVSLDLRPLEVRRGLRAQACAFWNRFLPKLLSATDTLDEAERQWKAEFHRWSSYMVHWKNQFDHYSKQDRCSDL

[4] = target: T1, Amyloid-beta precursor protein; experiment: Inhibition of amyloid beta 1 to 42 (unknown origin) CuCl2 induced aggregation at 40 uM by ThT fluorometric assay relative to control
[5] = target: T1, Amyloid-beta precursor protein; experiment: Inhibition of amyloid beta 42 (unknown origin) self aggregation at 10 uM relative to control
Acetylcholinesterase [6] = target: T4, Acetylcholinesterase (Electrophorus electricus, UniProt O42275); experiment: Inhibition of electric eel AChE
T4 sequence (O42275 whole entry): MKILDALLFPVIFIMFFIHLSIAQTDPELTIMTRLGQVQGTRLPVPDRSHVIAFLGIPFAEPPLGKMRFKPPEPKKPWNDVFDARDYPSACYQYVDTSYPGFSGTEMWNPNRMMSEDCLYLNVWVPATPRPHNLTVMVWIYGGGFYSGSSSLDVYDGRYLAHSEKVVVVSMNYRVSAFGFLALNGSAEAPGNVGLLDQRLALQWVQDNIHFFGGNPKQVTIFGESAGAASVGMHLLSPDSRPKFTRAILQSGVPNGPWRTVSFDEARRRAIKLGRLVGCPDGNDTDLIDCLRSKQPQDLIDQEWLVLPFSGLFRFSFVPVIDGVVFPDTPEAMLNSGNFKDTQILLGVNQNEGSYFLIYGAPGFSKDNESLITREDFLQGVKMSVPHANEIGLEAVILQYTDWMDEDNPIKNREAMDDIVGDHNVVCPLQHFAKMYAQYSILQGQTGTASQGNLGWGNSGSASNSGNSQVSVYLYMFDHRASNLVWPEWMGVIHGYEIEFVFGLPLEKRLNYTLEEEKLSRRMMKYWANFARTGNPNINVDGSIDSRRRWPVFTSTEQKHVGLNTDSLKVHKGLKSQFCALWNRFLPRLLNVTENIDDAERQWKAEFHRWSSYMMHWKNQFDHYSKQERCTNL

Beta-secretase 1 [7] = target: T5, Beta-secretase 1 (Homo sapiens, UniProt P56817); experiment: Inhibition of BACE1 (unknown origin)
T5 sequence (P56817 whole entry): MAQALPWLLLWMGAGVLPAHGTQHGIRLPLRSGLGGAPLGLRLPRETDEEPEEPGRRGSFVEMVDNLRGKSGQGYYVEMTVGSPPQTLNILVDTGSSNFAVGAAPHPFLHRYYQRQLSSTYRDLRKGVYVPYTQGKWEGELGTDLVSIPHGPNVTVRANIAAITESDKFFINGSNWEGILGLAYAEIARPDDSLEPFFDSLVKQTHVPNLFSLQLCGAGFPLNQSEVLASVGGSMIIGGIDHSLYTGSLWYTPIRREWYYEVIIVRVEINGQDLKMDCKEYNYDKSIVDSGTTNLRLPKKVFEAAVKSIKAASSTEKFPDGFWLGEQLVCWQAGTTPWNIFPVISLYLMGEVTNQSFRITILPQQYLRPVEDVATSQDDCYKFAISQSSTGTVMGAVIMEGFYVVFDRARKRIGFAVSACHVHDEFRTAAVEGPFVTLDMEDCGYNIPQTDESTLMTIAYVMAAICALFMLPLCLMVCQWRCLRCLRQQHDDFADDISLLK

Cholinesterase [8] = target: T6, Cholinesterase (Equus caballus, UniProt P81908); experiment: Inhibition of equine BChE
T6 sequence (P81908 whole entry): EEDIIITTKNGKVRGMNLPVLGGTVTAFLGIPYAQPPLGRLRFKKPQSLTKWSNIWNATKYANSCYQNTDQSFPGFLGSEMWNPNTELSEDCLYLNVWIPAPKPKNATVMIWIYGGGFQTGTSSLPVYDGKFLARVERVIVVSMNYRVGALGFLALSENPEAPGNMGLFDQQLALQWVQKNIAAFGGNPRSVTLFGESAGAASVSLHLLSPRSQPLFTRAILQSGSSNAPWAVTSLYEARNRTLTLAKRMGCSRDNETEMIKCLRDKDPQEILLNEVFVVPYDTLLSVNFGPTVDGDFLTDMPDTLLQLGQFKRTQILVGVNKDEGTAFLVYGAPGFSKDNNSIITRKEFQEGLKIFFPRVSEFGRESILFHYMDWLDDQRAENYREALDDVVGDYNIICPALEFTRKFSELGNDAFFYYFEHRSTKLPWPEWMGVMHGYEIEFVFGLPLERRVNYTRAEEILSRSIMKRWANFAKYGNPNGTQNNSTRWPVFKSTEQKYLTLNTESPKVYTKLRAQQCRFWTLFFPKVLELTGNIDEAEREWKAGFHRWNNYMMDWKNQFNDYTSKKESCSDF

[9] = target: T1, Amyloid-beta precursor protein; experiment: Inhibition of amyloid beta (25 to 35) (unknown origin) aggregation at 10 uM relative to control
Acetylcholinesterase [10] = target: Acetylcholinesterase (Torpedo californica, UniProt P04058); experiment: Inhibition of pacific electric ray AChE incubated for 15 mins; set-up: species or system Tetronarce californica
Chain of Acetylcholinesterase (Torpedo californica, UniProt P04058) (P04058 whole entry): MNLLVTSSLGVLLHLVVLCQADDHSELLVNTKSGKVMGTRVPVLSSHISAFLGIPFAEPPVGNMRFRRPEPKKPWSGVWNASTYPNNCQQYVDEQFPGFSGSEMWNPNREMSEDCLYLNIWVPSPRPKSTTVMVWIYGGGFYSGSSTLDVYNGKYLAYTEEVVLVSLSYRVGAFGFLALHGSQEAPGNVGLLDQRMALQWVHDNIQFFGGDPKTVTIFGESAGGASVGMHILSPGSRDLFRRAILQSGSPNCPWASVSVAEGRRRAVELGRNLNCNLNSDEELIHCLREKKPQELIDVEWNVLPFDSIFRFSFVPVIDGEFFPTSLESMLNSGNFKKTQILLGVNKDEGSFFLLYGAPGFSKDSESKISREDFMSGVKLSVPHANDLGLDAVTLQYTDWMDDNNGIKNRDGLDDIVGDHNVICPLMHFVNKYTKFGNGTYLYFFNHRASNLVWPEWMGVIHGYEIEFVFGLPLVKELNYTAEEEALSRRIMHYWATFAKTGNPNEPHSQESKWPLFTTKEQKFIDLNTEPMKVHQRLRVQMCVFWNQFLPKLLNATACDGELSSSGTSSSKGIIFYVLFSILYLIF

[11] = target: T1, Amyloid-beta precursor protein; experiment: Inhibition of amyloid beta 42 (unknown origin) self aggregation at 80 uM incubated for 24 hrs by fluoroscence emission relative to control
[12] = target: T1, Amyloid-beta precursor protein; experiment: Inhibition of amyloid beta 42 (unknown origin) aggregation at 25 uM relative to control
Acetylcholinesterase [13] = target: T4, Acetylcholinesterase; experiment: Inhibition of electric eel AChE using ATChI as substrate
Beta-secretase 1 [14] = target: T5, Beta-secretase 1; experiment: Inhibition of BACE1 (unknown origin) at 20 uM by fluorescence assay relative to control
[15] = target: T1, Amyloid-beta precursor protein; experiment: Inhibition of amyloid beta 42 (unknown origin) fibrillization at 44 uM for 48 hrs by ThT fluorescence assay relative to control
Cholinesterase [16] = target: T6, Cholinesterase; experiment: Inhibition of equine BChE using BTChI as substrate
[17] = target: T1, Amyloid-beta precursor protein; experiment: Inhibition of amyloid beta 1 to 42 (unknown origin) self induced aggregation at 100 uM by thioflavin T-based fluorometric assay relative to control
Cholinesterase [18] = target: T6, Cholinesterase; experiment: Inhibition of equine BChE using butyrylthiocholine iodide incubated for 3 mins by Ellman's method
[19] = target: T1, Amyloid-beta precursor protein; experiment: Inhibition of amyloid beta 1 to 42 (unknown origin) aggregation at 50 uM measured every 10 mins for 72 hrs by ThT fluorometric assay relative to control
[20] = target: Microtubule-associated protein tau (Homo sapiens) (UniProt P10636); experiment: Inhibition of tau (306 to 336 residue) (unknown origin) aggregation at 50 uM incubated overnight by ThT fluorometric assay relative to control
Chain of Microtubule-associated protein tau (Homo sapiens) (P10636 whole entry): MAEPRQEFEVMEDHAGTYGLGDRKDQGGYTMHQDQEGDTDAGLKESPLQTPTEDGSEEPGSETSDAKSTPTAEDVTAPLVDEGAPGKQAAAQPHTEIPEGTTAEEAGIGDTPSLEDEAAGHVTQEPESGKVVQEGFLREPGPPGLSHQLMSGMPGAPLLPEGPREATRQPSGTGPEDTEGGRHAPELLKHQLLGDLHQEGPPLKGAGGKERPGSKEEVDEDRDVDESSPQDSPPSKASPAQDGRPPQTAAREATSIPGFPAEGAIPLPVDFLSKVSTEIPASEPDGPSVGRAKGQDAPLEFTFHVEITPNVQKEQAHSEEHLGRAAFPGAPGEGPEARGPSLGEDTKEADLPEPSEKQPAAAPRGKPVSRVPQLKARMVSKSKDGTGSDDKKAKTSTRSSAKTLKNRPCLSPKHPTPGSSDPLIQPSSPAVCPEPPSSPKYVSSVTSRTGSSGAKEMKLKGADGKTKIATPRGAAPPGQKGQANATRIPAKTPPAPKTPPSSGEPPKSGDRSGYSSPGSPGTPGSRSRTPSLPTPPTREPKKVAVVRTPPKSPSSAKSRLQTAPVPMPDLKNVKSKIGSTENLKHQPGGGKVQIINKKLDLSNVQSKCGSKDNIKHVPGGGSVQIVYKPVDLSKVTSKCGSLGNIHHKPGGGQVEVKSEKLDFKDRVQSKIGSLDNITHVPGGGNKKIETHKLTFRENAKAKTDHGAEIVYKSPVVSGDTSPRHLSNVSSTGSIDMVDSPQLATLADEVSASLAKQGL

Cholinesterase [21] = target: T6, Cholinesterase; experiment: Inhibition of equine BChE by Ellman's method
[22] = target: T1, Amyloid-beta precursor protein; experiment: Inhibition of amyloid beta 42 (unknown origin) aggregation at 25 uM by Thioflavin T-based fluorescence assay relative to control
Acetylcholinesterase [23] = target: T3, Acetylcholinesterase; experiment: Inhibition of human AChE by Ellman's method
Acetylcholinesterase [24] = target: T3, Acetylcholinesterase; experiment: Inhibition of human erythrocyte AChE using ATC iodide as substrate preincubated for 5 mins followed by substrate addition measured Ellmans method
[25] = target: T1, Amyloid-beta precursor protein; experiment: Inhibition of amyloid beta 1 to 42 (unknown origin) self aggregation at 50 uM for 24 hrs by ThT fluorometric assay relative to control
Cholinesterase [26] = target: T2, Cholinesterase; experiment: Inhibition of human […] BChE using BTC iodide as substrate preincubated for 5 mins followed by substrate addition measured Ellmans method
Cholinesterase [27] = target: T6, Cholinesterase; experiment: Inhibition of equine BChE incubated for 15 mins by Ellman's method
Acetylcholinesterase [28] = target: T4, Acetylcholinesterase; experiment: Inhibition of electric eel AChE incubated for 15 mins by Ellman's method
Beta-secretase 1 [29] = target: T5, Beta-secretase 1; experiment: Inhibition of BACE1 (unknown origin) expressed in purified baculovirus using RhEVNLDAEFK-Quencher as substrate incubated at 50 uM for 90 mins in dark relative to control

T1 sequence (P05067 whole entry): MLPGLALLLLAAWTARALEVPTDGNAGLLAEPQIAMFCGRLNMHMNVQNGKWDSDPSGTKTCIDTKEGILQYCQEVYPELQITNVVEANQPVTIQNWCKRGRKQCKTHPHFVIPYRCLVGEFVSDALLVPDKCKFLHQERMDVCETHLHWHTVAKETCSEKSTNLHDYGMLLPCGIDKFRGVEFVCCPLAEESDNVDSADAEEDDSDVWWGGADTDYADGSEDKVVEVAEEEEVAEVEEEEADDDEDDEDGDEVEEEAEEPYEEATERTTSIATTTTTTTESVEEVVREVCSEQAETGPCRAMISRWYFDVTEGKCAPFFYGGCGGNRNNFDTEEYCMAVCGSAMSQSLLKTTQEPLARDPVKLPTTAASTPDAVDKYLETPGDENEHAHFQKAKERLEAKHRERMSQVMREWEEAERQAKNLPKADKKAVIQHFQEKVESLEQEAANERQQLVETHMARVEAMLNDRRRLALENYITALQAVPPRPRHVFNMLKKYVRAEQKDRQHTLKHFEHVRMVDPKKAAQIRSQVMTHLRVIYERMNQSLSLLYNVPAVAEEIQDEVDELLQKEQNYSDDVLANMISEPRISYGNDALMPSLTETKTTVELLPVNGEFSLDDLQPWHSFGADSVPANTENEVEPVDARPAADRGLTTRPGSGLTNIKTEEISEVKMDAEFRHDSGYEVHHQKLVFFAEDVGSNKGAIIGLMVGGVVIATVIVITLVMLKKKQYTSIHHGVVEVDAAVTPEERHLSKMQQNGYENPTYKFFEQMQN

SMILES: COC(=O)[C@H]1[C@H]2C[C@@H]3c4[nH]c5cc(OC)ccc5c4CCN3C[C@H]2C[C@@H](OC(=O)c2cc(OC)c(OC)c(OC)c2)[C@@H]1OC [RESERPINE]
inhibition [1]: 68%
IC50 (Cholinesterase [2]): 2800 nM
IC50 (Acetylcholinesterase [3]): 1700 nM

inhibition [4]: 78.4%
SMILES: CC(C)C1NC(=O)C=C1NCCN1CCN(Cc2ccccc2)CC1 (configuration not stated)

inhibition [5]: 94.6%
SMILES: CN(C)CCN1CCN(c2ccc(C(=O)/C=C/c3cc4ccccc4o3)cc2)CC1

SMILES: O=C(NCCNc1c2c(nc3cc(Cl)ccc13)CCCC2)c1cc(-c2ccc(Cl)cc2)on1
IC50 (Acetylcholinesterase [6]): 52 nM
IC50 (Beta-secretase 1 [7]): 1650 nM
IC50 (Cholinesterase [8]): 372 nM
inhibition [9]: 79.4%

SMILES: COc1ccc(C(=O)CCC(=O)NCCCNc2c3c(nc4ccccc24)CCCC3)c2ccccc12
IC50 (Acetylcholinesterase [10]): 120 nM
inhibition [11]: 70.5%

SMILES: COC(=O)C(C)c1ccc(-c2ccc(C(=O)/C=C/c3ccc(CN4CCCC4)c(O)c3)cc2)c(F)c1 (configuration not stated)
IC50 (Acetylcholinesterase [6]): 7150 nM
inhibition [12]: 70.7%

SMILES: CCCOc1ccc2c(C)cc(=S)oc2c1OCCC
IC50 (Acetylcholinesterase [13]): 5630 nM
inhibition (Beta-secretase 1 [14]): 57.2%
inhibition [15]: 76.7%
IC50 (Cholinesterase [16]): 17000 nM

inhibition [17]: 62.1%
SMILES: CCN(CCCCCOc1cc(O)c2c(c1)OC(c1ccc(O)cc1)CC2=O)Cc1ccccc1 (configuration not stated)

SMILES: S=C(NCCCCNc1c2c(nc3ccccc13)CCCC2)Nc1c[nH]c2ccccc12
IC50 (Cholinesterase [2]): 76 nM
IC50 (Acetylcholinesterase [3]): 25 nM

SMILES: O=C(CCCCC1CCSS1)NCc1cn(CCCCOc2ccc3c(=O)ccoc3c2)nn1 (configuration not stated)
IC50 (Cholinesterase [18]): 7500 nM

SMILES: Clc1ccc2c(NCCCCCN3c4ccccc4Sc4ccccc43)c3c(nc2c1)CCCC3
inhibition [19]: 74.1%
inhibition [20]: 50.5%
IC50 (Cholinesterase [2]): 190 nM
IC50 (Acetylcholinesterase [3]): 8 nM

SMILES: c1cc2[nH]c3nc(NCCCCCCN4CCCC4)nnc3c2cc1N1CCCCC1
IC50 (Cholinesterase [21]): 210 nM
inhibition [22]: 54.3%
IC50 (Acetylcholinesterase [23]): 320 nM

SMILES: CCOC(=O)C1=C(C)N(CCC2CCN(Cc3ccccc3)CC2)C(=O)NC1c1coc2c(Cl)cc(Cl)cc2c1=O (configuration not stated)
inhibition [20]: 73.7%
IC50 (Acetylcholinesterase [24]): 60 nM
inhibition [25]: 63.6%
IC50 (Cholinesterase [26]): 17300 nM

SMILES: O=C(NC1CCN(Cc2ccccc2)CC1)c1cc(-c2cccc([N+](=O)[O-])c2)on1
IC50 (Cholinesterase [27]): 15200 nM
IC50 (Acetylcholinesterase [28]): 16100 nM
inhibition (Beta-secretase 1 [29]): 24.3%

SMILES: N=c1oc2ccccc2cc1C(=O)Nc1cc(Br)ccc1N1CCN(Cc2ccc(F)cc2)CC1
IC50 (Beta-secretase 1 [7]): 6310 nM
IC50 (Cholinesterase [2]): 10500 nM
